Source: ChEMBL document CHEMBL1201862, “PubChem BioAssay data set” (2004)
Calls of active or inactive are those of the source.

Experiments:
[1] = target: T1, Calpain-2 catalytic subunit (Sus scrofa, UniProt P43367); experiment: m-calpain protease blockers, concentration series – biochemical, fluorogenic peptide substrate, dose response (AID 1420); type: functional
T1 sequence (P43367 whole entry): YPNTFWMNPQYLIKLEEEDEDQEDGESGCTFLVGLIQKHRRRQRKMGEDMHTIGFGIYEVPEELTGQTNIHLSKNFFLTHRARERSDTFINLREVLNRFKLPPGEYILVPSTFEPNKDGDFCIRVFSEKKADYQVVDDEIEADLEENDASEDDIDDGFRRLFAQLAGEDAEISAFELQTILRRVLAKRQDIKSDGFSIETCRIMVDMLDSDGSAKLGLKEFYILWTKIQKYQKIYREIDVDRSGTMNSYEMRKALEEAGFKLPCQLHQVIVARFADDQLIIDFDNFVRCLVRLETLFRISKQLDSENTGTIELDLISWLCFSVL

[2] = target: T2, Heat shock factor protein 1 (Mus musculus, UniProt P38532); experiment: decrease of HSF1-responsive luciferase luminescence – cell-based, NIH3T3, dose retest, confirmation (AID 2382); type: functional;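 further: NIH3T3 fibroblasts with HSF1-driven luciferase reporter stressed by proteasome inhibitor MG132; luminescence from HSF1-driven luciferase expression after 8 hours of MG132 stress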
T2 sequence (P38532 whole entry): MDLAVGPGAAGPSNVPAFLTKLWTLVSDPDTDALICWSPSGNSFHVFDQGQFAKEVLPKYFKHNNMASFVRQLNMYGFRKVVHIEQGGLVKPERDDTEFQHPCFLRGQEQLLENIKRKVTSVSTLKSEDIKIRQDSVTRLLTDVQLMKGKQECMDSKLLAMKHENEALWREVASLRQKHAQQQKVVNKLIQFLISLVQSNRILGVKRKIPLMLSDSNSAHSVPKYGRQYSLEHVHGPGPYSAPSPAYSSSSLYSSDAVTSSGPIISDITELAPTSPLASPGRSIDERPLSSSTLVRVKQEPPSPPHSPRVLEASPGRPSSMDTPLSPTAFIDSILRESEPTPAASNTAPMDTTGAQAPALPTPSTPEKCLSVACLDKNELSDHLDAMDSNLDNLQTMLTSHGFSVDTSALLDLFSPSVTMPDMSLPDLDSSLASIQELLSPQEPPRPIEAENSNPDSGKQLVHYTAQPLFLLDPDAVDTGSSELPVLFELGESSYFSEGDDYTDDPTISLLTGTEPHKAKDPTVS

H9c2 = experiment: cells; type: functional, cell-based; settings: Rattus norvegicus, H9c2, Myocardium
[3] = target: T3, RNA-binding protein pos-1 (Caenorhabditis elegans, UniProt G5EF15); experiment: disruptors of C. elegans POS-1 RNA interaction – biochemical, fluorescence polarization, dose response (AID 1964);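 further: purified POS-1 fused to maltose binding protein made in E. coli; potency of compounds blocking POS-1 binding to fluorescent RNA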
T3 sequence (G5EF15 whole entry): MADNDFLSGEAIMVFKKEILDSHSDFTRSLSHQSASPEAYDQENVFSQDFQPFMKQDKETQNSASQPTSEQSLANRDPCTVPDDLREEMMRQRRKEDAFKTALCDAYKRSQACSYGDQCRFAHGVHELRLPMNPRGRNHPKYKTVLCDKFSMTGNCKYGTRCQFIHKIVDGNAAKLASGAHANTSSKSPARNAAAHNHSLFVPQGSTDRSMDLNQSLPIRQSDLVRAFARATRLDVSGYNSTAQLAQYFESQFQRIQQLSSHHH

[4] = target: T4, Zinc finger protein mex-5 (Caenorhabditis elegans, UniProt Q9XUB2); experiment: potency of MEX-5 RNA-binding blockers – biochemical, C. elegans, fluorescence polarization, dose response (AID 1960)
T4 sequence (Q9XUB2 whole entry): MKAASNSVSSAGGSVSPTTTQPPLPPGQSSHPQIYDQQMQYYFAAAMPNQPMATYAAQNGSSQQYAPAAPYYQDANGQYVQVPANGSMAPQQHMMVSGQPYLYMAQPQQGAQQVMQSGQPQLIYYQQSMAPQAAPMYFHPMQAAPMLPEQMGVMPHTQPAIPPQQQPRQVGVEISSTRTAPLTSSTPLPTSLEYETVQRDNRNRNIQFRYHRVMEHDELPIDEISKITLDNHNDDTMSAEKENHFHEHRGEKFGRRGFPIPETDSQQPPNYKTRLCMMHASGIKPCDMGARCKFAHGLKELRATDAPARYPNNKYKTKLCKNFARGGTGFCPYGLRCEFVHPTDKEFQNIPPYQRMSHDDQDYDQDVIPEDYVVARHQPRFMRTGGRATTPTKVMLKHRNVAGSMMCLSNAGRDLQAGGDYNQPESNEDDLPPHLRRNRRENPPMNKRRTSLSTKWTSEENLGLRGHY

[5] = NIH-3T3 fibroblast cytotoxicity, dose response, cytotoxicity control, cell-based, fluorescence, Alamar Blue, secondary assay (AID 2327); type: functional;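 further: NIH-3T3 mouse fibroblasts cultured with fluconazole at 8 µg/mL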
[6] = fluconazole-exposed Candida albicans growth modulators – fluorescence, retest, confirmation (AID 2467); type: functional, cell-based
[7] = Trypanosoma cruzi growth suppression in host cells – NIH3T3 host cells, beta-gal luminescence, confirmation (AID 2044); type: functional, cell-based;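 further: intracellular parasites grown in NIH/3T3 mouse fibroblasts as host cells; luminescent beta-galactosidase reporter signal from transgenic T. cruzi replicating inside host cells; inhibitors lower the luminescence signal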
[8] = NIH3T3 cell viability loss – ATP luminescence, mouse fibroblasts, counter-screen, dose response (AID 2010); type: functional, cell-based;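 further: cells exposed to compound for about 90 hours before reading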
[9] = target: FAD-linked sulfhydryl oxidase ALR (Homo sapiens, UniProt P55789); experiment: ALR-catalysed DTT oxidation blockers – biochemical, H2O2 detection, luminescence, cherry-pick, dose response (AID 493248)
Cytochrome P450 2C9 = Cytochrome P450 2C9 (Homo sapiens, UniProt P11712)
Chain of Cytochrome P450 2C9 (P11712 whole entry): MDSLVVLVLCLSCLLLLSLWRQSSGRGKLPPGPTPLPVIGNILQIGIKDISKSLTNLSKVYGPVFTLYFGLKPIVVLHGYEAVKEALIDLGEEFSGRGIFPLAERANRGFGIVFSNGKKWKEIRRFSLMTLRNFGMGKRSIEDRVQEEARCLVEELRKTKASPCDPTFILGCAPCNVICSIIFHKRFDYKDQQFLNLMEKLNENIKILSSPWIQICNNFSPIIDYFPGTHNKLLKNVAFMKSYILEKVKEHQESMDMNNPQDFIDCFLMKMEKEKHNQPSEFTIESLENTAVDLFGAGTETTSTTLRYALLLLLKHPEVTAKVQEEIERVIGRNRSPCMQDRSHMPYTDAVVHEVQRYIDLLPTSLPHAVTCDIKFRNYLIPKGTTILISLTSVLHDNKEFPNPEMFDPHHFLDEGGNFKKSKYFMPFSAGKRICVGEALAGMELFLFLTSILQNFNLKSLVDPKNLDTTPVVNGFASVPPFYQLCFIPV

Chain of FAD-linked sulfhydryl oxidase ALR (P55789 whole entry): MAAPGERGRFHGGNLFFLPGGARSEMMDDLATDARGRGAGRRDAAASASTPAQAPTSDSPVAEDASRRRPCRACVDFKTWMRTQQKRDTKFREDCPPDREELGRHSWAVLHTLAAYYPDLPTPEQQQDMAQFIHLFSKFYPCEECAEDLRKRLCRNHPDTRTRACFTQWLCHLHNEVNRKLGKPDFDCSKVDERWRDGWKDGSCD

## Oc1ccccc1CN(Cc1ccco1)CC(O)COCc1ccc(Cl)cc1 (centres undefined)
[1]
  IC50: 7.83 µM (not active)

## O=C(C1CCCO1)N1CCC2(CC1)OCCO2 (centres undefined)
[2]
  EC50: > 195 µM (not active)

## CSCc1cc(N2CCOCC2)nc(SCc2ccc(Cl)cc2Cl)n1
[1]
  IC50: 3.57 µM (not active)

## CC(C)CCN(C(=S)NC(=O)C1CCCCC1)c1c(N)n(Cc2ccccc2)c(=O)[nH]c1=O
[1]
  IC50: > 50 µM (not active)

## CCC1CCCCN1C(=O)c1cc2c(=O)n3cccc(C)c3nc2s1 (centres undefined)
[2]
  EC50: > 195 µM (not active)

## O=C(CSc1ccc2nnc(-c3ccncc3)n2n1)Nc1nccs1
[1]
  IC50: > 50 µM (not active)

## CC1CCN(Cc2cnc(Cl)s2)CC1
[1]
  IC50: 1.78 µM (not active)

## CN(C)C=O.COc1ccc(/C=C/c2nc3ccccc3c(=O)n2-c2cccc(C(=O)O)c2)cc1
[2]
  EC50: 22.7 µM (active)

## COc1cccc(CN(C)C(=O)C(Cc2ccccc2)NC(=O)c2ccccc2)c1OC (centres undefined)
H9c2
  IC50: 6.93 µM (active)

## O=C(NC1CCCCC1)C(c1ccc2ncccc2c1)N(Cc1cccs1)C(=O)c1cccs1 (centres undefined)
H9c2
  IC50: > 79 µM (inactive)

## CCCCN1C(=O)NC(=O)/C(=C\NNC(=O)c2ccncc2)C1=O
[3]
  EC50: > 300 µM (not active)
[4]
  EC50: > 300 µM (not active)

## CC(C)CC(=O)Nc1ccc(C(=O)COC(=O)Cc2nnc(O)c3ccccc23)cc1
H9c2
  IC50: 18.4 µM (active)

## Cc1ccc(Nc2nc(CSc3nnc(-c4ccncc4)n3-c3ccccc3C)cs2)cc1
[5]
  EC50: > 160 µM (inactive)
[6]
  EC50: 4.95 µM (active)
[7]
  EC50: 2.47 µM (active)
[8]
  EC50: > 60 µM (inconclusive)

## C=CCN1C(=O)NC(=O)/C(=C(/C)NC2CCN(Cc3ccccc3)CC2)C1=O
[2]
  EC50: > 195 µM (not active)

## CC(C)CCNC(=O)NC(=O)CSc1nnc(-c2ccccc2Br)o1
[1]
  IC50: > 50 µM (not active)

## Cc1cc(NC(=O)COC(=O)[C@H](C)NC(=O)c2ccccc2)no1
[2]
  EC50: > 195 µM (not active)

## CCOC(=O)c1c(NC(=O)COC(=O)Cc2nnc(O)c3ccccc23)sc(C(=O)NC)c1C
H9c2
  IC50: > 79 µM (inactive)

## COc1ccc(NS(=O)(=O)c2cc(NC(=O)Cc3nnc(O)c4ccccc34)ccc2OC)cc1
H9c2
  IC50: > 79 µM (inactive)

## COc1cc(/C=N/n2nnnc2Nc2ccccc2)cc(OC)c1OC
H9c2
  IC50: 12.4 µM (active)

## CC1=NN(c2ccccc2)C(=O)C1c1ccccc1 (centres undefined)
[9]
  AC50: 2.86 µM (active)

## O=C(O)CC1S/C(=N/N=C/c2ccc(Br)cc2)N(c2ccccc2)C1=O (centres undefined)
[1]
  IC50: 9.55 µM (not active)

## CN1CCN(/C=N/C2=C(C#N)C(c3ccccc3)C3=C(CC(C)(C)CC3=O)O2)CC1 (centres undefined)
[3]
  EC50: > 300 µM (not active)
[4]
  EC50: > 300 µM (not active)
Cytochrome P450 2C9
  AC50: 14.1 µM (inconclusive)

## O=C(N/N=C/c1cccc(C(F)(F)F)c1)c1ccc(O)cc1
[2]
  EC50: > 195 µM (not active)
